Experimental findings from patent US5112739A, “Enzyme controlled release system” (Polaroid Corporation, priority 1988, dated 1992) are described below.

Common to all, as to assay type: biochemical
The target in assay [1] is β-galactosidase from e. coli (Escherichia coli, UniProt P00722). Kind of assay: relative release rate of the leaving group on cleavage by β-galactosidase, spectrophotometric. The conditions noted are these: for APPROXIMATE RELATIVE RATE (release of leaving group, compared with ONPG): 5 × 10^-5 M compound, pH7 tris buffer, 0.01 M NaCl, 0.01 M MgCl2, 25° C., 1.5 IU β-galactosidase, ONPG = 1.0; for release rate, comparison in words: same test as the relative rate table, β-galactosidase from e. coli. On the procedure: The approximate relative release rates of the leaving groups of compounds according to the invention compared with that of o-nitrophenolgalactoside (ONPG) were measured according to the following procedure: a 5 × 10^-5 M solution of the compound was formed in pH7 tris(hydroxymethyl)aminomethane buffer which was 0.01 M in sodium chloride and 0.01 M in magnesium chloride at 25° C. The solution was placed in a 3 ml cuvette and 1.5 IU of β-galactosidase from e. coli introduced. The reaction mixture was monitored in a spectrophotometer at the appropriate wavelength.
Sequence of β-galactosidase from e. coli (P00722 whole entry): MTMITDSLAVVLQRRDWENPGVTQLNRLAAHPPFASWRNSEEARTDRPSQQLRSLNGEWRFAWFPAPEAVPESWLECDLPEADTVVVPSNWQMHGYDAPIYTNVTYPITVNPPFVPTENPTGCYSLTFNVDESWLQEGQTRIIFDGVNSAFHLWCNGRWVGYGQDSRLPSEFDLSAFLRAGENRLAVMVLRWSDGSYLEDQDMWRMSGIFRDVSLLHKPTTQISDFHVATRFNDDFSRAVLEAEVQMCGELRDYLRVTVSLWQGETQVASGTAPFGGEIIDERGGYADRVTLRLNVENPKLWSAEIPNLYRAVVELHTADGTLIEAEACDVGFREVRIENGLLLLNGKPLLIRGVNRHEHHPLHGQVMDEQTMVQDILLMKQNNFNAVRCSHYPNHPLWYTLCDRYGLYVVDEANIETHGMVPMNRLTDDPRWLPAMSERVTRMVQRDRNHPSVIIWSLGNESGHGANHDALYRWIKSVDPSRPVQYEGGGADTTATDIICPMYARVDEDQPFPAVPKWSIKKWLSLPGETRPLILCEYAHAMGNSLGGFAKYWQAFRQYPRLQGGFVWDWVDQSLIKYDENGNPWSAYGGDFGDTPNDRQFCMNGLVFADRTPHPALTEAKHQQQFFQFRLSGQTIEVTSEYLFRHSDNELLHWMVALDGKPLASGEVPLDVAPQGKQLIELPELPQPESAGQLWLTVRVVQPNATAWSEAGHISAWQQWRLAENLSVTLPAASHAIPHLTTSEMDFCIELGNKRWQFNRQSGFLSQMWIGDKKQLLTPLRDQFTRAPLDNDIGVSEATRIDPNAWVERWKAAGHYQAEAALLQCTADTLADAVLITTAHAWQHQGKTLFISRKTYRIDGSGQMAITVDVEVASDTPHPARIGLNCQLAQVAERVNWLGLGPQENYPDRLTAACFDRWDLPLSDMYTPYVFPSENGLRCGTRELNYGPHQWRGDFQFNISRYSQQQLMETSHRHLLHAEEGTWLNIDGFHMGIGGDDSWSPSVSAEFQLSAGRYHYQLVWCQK

Assay [2] deals with anti α-TSH-β-galactosidase conjugate. Kind of assay: release of dye from compound B by anti α-TSH-β-galactosidase conjugate, optical density and fluorescence. The conditions noted are these: 100 μl of 0.3 mmolar mixture, pH 7.0 buffer, + 10 μl conjugate, 15 minutes at 37° C., enzyme 1.3 × 10^-12 molar. As for the experimental part: A 0.3 :mmolar mixture of compound B in a pH 7.0 buffer (0.1 molar NaH2 PO 0.15 molar NaCl, 0.1% Zwittergent 3-14) was stirred at room temperature for 30 minutes and then filtered through a 0.22 μ filter element. The concentration of the compound was calculated by diluting the solution (1:10) to provide an optical density of between 0.39 and 0.41 at 470 nm (ε=20,000).
The solution (100 μl) was added to a microtiter plate well and the optical density was measured at 570 nm with an EIA Auto Reader, Model EL 310 from Bio Tek Instruments. The fluorescence of the same 100 μl volume of the solution was measured with a Titertek Fluoroska® from Flow Laboratories by exciting at 550 nm and reading at 580 nm.
To each of the 100 μl volumes of the solution there were added 10 μl of an anti α-TSH-β-galactosidase conjugate ([…] in β-galactosidase) and the mixtures were incubated for 15 minutes at 37° C. followed by measuring the optical density and fluorescence as described above.

Assay [3] deals with β-galactosidase (e. coli). Put plainly: fluorescence rate of compound B as a function of β-galactosidase concentration (standard curve). The settings on record: 45 μl 0.614 mmolar compound + 5 μl enzyme, pH 7.6, ex 550 nm/em 580 nm, 0 and 2 minutes, average of two.

In the case of `O=C(c1cc2ccc(OCc3ccc(O[C@@H]4O[C@H](CO)[C@H](O)[C@H](O)[C@H]4O)c([N+](=O)[O-])c3)cc2oc1=O)N1CCOCC1` [E], the “APPROXIMATE RELATIVE RATE (release of leaving group, compared with ONPG)” value (from here on “APPROXIMATE RELATIVE RATE”) in assay [1] was 0.1-0.5.
Regarding `O=c1ccc2nc3ccc(OCc4cc([N+](=O)[O-])ccc4O[C@@H]4O[C@H](CO)[C@H](O)[C@H](O)[C@H]4O)cc3oc-2c1` [C], in assay [1], the “APPROXIMATE RELATIVE RATE” value was 0.005-0.05 and the “release rate, comparison in words” value was “significantly different release rates”.
Regarding `O=c1ccc2nc3ccc(OCc4ccc(O[C@@H]5O[C@H](CO)[C@H](O)[C@H](O)[C@H]5O)c([N+](=O)[O-])c4)cc3oc-2c1` [A], in assay [1], the “APPROXIMATE RELATIVE RATE” value worked out at 0.25 and the “release rate, comparison in words” value is reported as “significantly different release rates”.
On the same counts, the results for `O=C(c1cc(O[C@@H]2O[C@H](CO)[C@H](O)[C@H](O)[C@H]2O)c([N+](=O)[O-])cc1COc1ccc2nc3ccc(=O)cc-3oc2c1)N1CCOCC1` [D] are 0.02 and “much slower release rate”.
Turning to `Cc1cc(=O)c(C(=O)N2CCOCC2)c2oc3c(C(=O)N4CCOCC4)c(OCc4ccc(O[C@@H]5O[C@H](CO)[C@H](O)[C@H](O)[C@H]5O)c([N+](=O)[O-])c4)cc(C)c3nc1-2` [B], the “APPROXIMATE RELATIVE RATE” value in assay [1] came to 0.3. Further, in assay [2] (570 nm), the “change in optical density” value is 0.0594. In addition, in assay [2] (excitation 550 nm, reading 580 nm), the change in fluorescence turned out to be 7266 mV. For the same compound, the “change in voltage/minute (fluorescence)” value in assay [3] (Enzyme Conc. 1 × 10^-11) was 2.161 V/min; in assay [3] (Enzyme Conc. 1 × 10^-12) it was 0.247 V/min; in assay [3] (Enzyme Conc. 1 × 10^-13), 0.035 V/min; in assay [3] (Enzyme Conc. 3 × 10^-12), 0.734 V/min; in assay [3] (Enzyme Conc. 3 × 10^-13), 0.078 V/min.
As to `O=[N+]([O-])c1ccccc1O[C@@H]1O[C@H](CO)[C@H](O)[C@H](O)[C@H]1O` [ONPG, o-nitrophenolgalactoside, reference compound], the “APPROXIMATE RELATIVE RATE” value in assay [1] is 1.0.
